Where no end group is shown, it is not given here.
What was measured:
DU-145 Target Cells = assay: Natural killer assay (^51Cr release), human PBLs against DU-145; type: cell-based; settings: PT 0.05 μg/ml
Procedure: Murine spleen cell and human peripheral blood lymphocytes (PBLs) were obtained as described in the procedure for the Mitogen Assay.
Drugs and control substances were added, using sterile techniques, to the wells of a 24-well plate, using RPMI-10 as the culture medium. Spleen cells or human lymphocytes were added last to the wells at a concentration of 4×10^6 cells per 2 ml total volume in the well. Splenocyte incubation was usually three days (65-70 hours) while human lymphocyte stimulation may be extended to four to five days. The cells were incubated at 37° C. in a humidified 5% CO2 incubator.
On the day of harvest, 10^7 target cells were labeled with 150 μCi of ^51Cr (sodium chromate). Target cells used were YAC-I (murine Lymphoma) or K562 (human chronic myelogenous leukemia). […]
The 96-well plate was centrifuged at 150×g for four minutes to gently bring the effector and target cells in contact. […] The percent release was calculated using the following formula: […]
Addition of PT stimulates both murine splenocytes and human PBLs to kill tumor cells through lysis. […] After a 30-minute incubation, the radioactivity in the supernatant fluid was counted as a measure of lysis of the target cells, which reflects NK activity. […]

[1] = test system: T cells in the spleen and thymus; assay: FITC Thy-1.2 staining of T cells after ip injection; type: in vivo, Swiss Webster mice
Procedure: Using sterile technique the spleen or thymus was removed from a mouse euthanized by CO2 gas. The organ was teased apart to collect splenocytes or thymocytes, respectively. The cells were treated with red cell lysing buffer at 37° C. to remove the erthyrocytes, then washed several times in culture medium, RPMI-10. The cells were counted using Trypan Blue exclusion to determine viable cell yield (as described above) and resuspended in PBS/1% BSA/0.1% sodium azide buffer (pH 7.2) at 2×10^7 cells/ml.
To a microfuge tube, in ice, was added 100 μl of cell suspension (2×10^7 cells/ml). Five microliters of FcγR Block (CD16/CD32 Block; Pharmingen, San Diego, Calif.), diluted to 50 μg/ml with PBS/BSA/Azide Buffer, is added. The tube was gently mixed and kept on ice for three minutes.
One hundred microliters of Thy 1.2 FITC stain (10 μg/ml) were added and the tube was gently vortexed. Cells were stained for 30 minutes at 4° C., followed by centrifugation in a microfuge centrifuge at 4500 rpm for three minutes. The cells were washed twice with 500 μl ice-cold PBS/BSA/Azide buffer, and resuspended each time by gentle vortexing.
One hundred microliters of 1% paraformaldehyde (in PBS) were added to the cell pellet, and the cells were thoroughly mixed, then incubated 20 minutes at 4° C. The cells were then washed once with 500 μl of 2.19% glycine and resuspended in 500 μl of sterile PBS.
Fifteen microliters of the stained cell suspension were placed as two non-overlapping spots on a 1-mm thick glass slide that had been cleaned with ethanol. The cell droplets were allowed to dry without spreading or using a cover slip. The slides were air-dried in a hood, covered with aluminum foil to exclude light (in order to prevent photobleaching). If the slide was pre-cleaned and dried correctly, the droplets will naturally dry to a diameter of about 10 mm. The slides should be read within one week.
Cells were evaluated using a Zeiss oil-immersion microscope (UV-lamp, filter #47; Carl Zeiss Inc., Thornwood, N.Y.). Non-stained cells appeared medium-brown in color on a dark background. […] Partially stained cells that have a partial ring were counted separately. The percentage of non-stained, partially stained, and completely stained cells was determined. At least 200 cells per slide were scored, but usually about 300-400 cells were counted.
Data set out in Table 4, and discussed above, indicate that PT stimulates mitogen activity with murine splenocytes in vitro. This could come about through the action of activated macrophages on T cells by IL-1 production and antigen presentation to the T cells. […] T cells were detected with fluorescent-labeled (FITC) Thy 1.2 monoclonal antibody, which is a general antibody for all T cells. The cells were counted manually with a fluorescent microscope, and the data are divided into cells with no stain (no fluorescence), cells with partial staining (medium fluorescence), and cells with intense staining (high fluorescence). The mice were injected with the indicated amount of PT intraperitoneally and the animals sacrificed after three days to obtain the spleen and thymus.

[2] = test system: membrane structure of cells or phospholipid vesicles; settings: reported in the literature; begin around this value and continue up to and above 20 μg/ml; cited from earlier work

Pyrularia thionin (KSCCRNTWARNCYNVCRLPGTISREICAKKCDCKIISGTTCPSDYPK; ends and bridges not checked; also: labeled with 125I) [PT]
% Cytotoxicity (DU-145 Target Cells): 11.5 ± 1.1% | number of T cells in the spleen and thymus ([1]; 10 μg of PT injected intraperitoneally into Swiss Webster mice): increase in the number of T cells in the spleen and thymus | Splenic cells, Medium Fluor. ([1]; Experiment 1, 7 week male mice, 10 μg PT ip, after three days, none: 13): 24 ± 4.2% | Splenic cells, High Fluor. ([1]; Experiment 1, 7 week male mice, 10 μg PT ip, after three days, none: 18): 30 ± 5.0% | Splenic cells, No Fluor. ([1]; Experiment 1, 7 week male mice, 10 μg PT ip, after three days, none: 69): 46 ± 0.4% | Splenic cells, Medium Fluor. ([1]; Experiment 2, 6 month male mice, 10 μg PT ip, after three days, none: 21): 36 ± 2.1% | Splenic cells, High Fluor. ([1]; Experiment 2, 6 month male mice, 10 μg PT ip, after three days, none: 29): 32 ± 1.4% | Splenic cells, No Fluor. ([1]; Experiment 2, 6 month male mice, 10 μg PT ip, after three days, none: 50): 32 ± 1.1% | Splenic cells, Medium Fluor. ([1]; Experiment 3, 4 month females, 5 μg PT ip, after three days, none: 24): 28 ± 2.2% | Thymus cells, High Fluor. ([1]; Experiment 3, 4 month females, 5 μg PT ip, after three days, none: 25): 39 ± 2.9% | Splenic cells, High Fluor. ([1]; Experiment 3, 4 month females, 5 μg PT ip, after three days, none: 26): 31 ± 2.5% | Thymus cells, Medium Fluor. ([1]; Experiment 3, 4 month females, 5 μg PT ip, after three days, none: 27): 29 ± 1.5% | Thymus cells, No. Fluor. ([1]; Experiment 3, 4 month females, 5 μg PT ip, after three days, none: 48): 32 ± 4.4% | Splenic cells, No Fluor. ([1]; Experiment 3, 4 month females, 5 μg PT ip, after three days, none: 50): 41 ± 3.5% | concentrations required to induce changes in the membrane structure of cells or phospholipid vesicles [2]: ≥ 1000 ng/mL

Source: patent publication US7572436B1, “Thionin as an antineoplastic and immunostimulant” (priority 2000, dated 2009)
